The numbers were not newly measured in patent US20180110785A1, “METHODS AND COMPOSITIONS FOR AMELIORATING SYMPTOMS ASSOCIATED WITH CHROMOSOMAL ABNORMALITIES” (priority 2014, published 2018), which cites them from elsewhere.

The structures appear in SMILES notation. Entries after “also recorded” stand apart in the source; their conditions may differ. Read-outs that look alike come from different tables or passages of the source.

For data set [1], the system named is Ts65Dn mice. Particulars: SAG and BrdU co-injected at P0; cited from earlier work.
Data set [2] deals with Ts65Dn mice. Particulars: TsSAG vs EuVeh and TsVeh; cited from earlier work.
The test system of a further data set is primary GCP cultures. The following applies: compared with Shh-Np; cited from earlier work.
Data set [3] deals with Ts65Dn mice. Further details: cerebellar cross-sectional area at the midline and GC density: dose or concentration left out as unconfirmed. Particulars: cited from earlier work.
For data set [4], the system named is Schaffer collateral-CA1 synapses of Ts65Dn mice. Particulars: cited from earlier work.
For data set [5], the system named is Ts65Dn mice. Particulars: cited from earlier work.
In data set [6] the test system is Schaffer collateral-CA1 synapses of Ts65Dn mice. The following applies: cited from earlier work; for TBS-induced LTP, fEPSP: hippocampal slices from TsSAG mice.
The test system of data set [7] is Ts65Dn mice. The following applies: cited from earlier work. The source holds these as a separate data set.
The conditions of data set [8]: in vivo; cited from earlier work.
Data set [9] has as its system cerebellar Purkinje cells of Ts65Dn and euploid mice. Particulars: cited from earlier work.
In data set [10] the test system is Ts65Dn mice. Particulars: SAG-treated mice, first 4 months of life; cited from earlier work.
[11] abbreviates: hippocampal slices from Ts65Dn mice.

Regarding `CNC1CCC(N(Cc2cccc(-c3ccncc3)c2)C(=O)c2sc3ccccc3c2Cl)CC1` (stereo not drawn) [SAG], the “dentate gyrus deficit / proliferation at P6” value in the data set with Ts65Dn mice [1] is recorded as “Dentate gyrus is not affected by SAG treatment”. In addition, in the data set on Ts65Dn mice [2], the “open-field performance (time in periphery or center)” value was “no significant differences were observed with TsSAG; also recorded: does not affect open-field performance”. In the data set on primary GCP cultures, the mitogenic activity entry was “had mitogenic activity in primary GCP cultures”. The “GCP number at P6” value in the data set with Ts65Dn mice [3] (Ts65Dn mice, SAG subcutaneously on the day of birth) is on record as “normalized GCP number”; in the data set on Ts65Dn mice [3] (euploid mice (EuSAG), single dose of SAG at P0), “did not significantly increase GCP number at P6”. The “cerebellar cross-sectional area at the midline and GC density” value in the data set on Ts65Dn mice [3] (adult (about 16 weeks) Ts65Dn mice, single injection of SAG on the day of birth) is “had the same cross-sectional area and GC density as EuVeh; also recorded: normalizes cerebellar morphology in adult Ts65Dn mice”. In data set [4] (TsSAG, n=11), the NMDA/AMPA ratio was 0.19±0.034. Besides, the “NMDA-EPSCs” value in [4] (setting [11]) is “partially rescues attenuated NMDA-EPSCs in hippocampal slices from Ts65Dn mice”. The “Y maze performance (alternation, arm entrances; words)” value with Ts65Dn mice [5] (Ts65Dn mice) is listed as “did not have an effect on either outcome in Ts65Dn mice; also recorded: does not improve Y maze performance in Ts65Dn mice”. Moreover, the Y maze alternation in the data set with Ts65Dn mice [5] (TsSAG mice (EuVeh 78%)) is 60%. Also, the “TBS-LTP” value in data set [6] (setting [11]) is listed as “rescues attenuated TBS-LTP in hippocampal slices from Ts65Dn mice”. The “TBS-induced LTP, fEPSP” value was 132.9±2.2 % of baseline in data set [6] (t=30 min) and 127.4±2.0 % of baseline in data set [6] (t=80 min). The MWM search strategies result in the data set with Ts65Dn mice [7] (TsSAG mice) was “used the same successful strategies as EuVeh; also recorded: normalizes search strategies of Ts65Dn mice in the MWM”. The “performance in MWM / tasks dependent on hippocampus” value with Ts65Dn mice [7] (adult Ts65Dn mice, single SAG treatment at P0) is “normalized performance of adult Ts65Dn mice in the MWM; also recorded: corrects performance of trisomic mice in tasks dependent on hippocampus”. Further, the MWM performance entry in the data set on Ts65Dn mice [7] (euploid mice) was “had no effect on the performance of euploid mice”. Also, the “crossing of biological barriers” value in data set [8] is “crosses the gut, the placenta, and the blood-brain barrier; also recorded: penetrates the blood-brain barrier”. The “depression of EPSC after induction of LTD” value in data set [9] (Ts65Dn mice, limited to lobule III, P=0.019) was “more depression of EPSC after the induction of LTD”. In addition, the PPR values entry in data set [9] (euploid mice, lobule IX, P=0.005) is “significantly decreased the PPR values measured in lobule IX”. In addition, in data set [9] (trisomic mice, lobule III and IX), the “EPSC paired-pulse ratios (PPR) of Purkinje cells” value is listed as “did not restore the PPR values in trisomic mice”. Besides, the “tumor formation or complications” value in the data set with Ts65Dn mice [10] is reported as “no evidence of tumor formation or obvious complications in the first 4 months of life”.
